Source: article PMC6321475, “Synthesis and Evaluation of the 4-Substituted 2-Hydroxy-5-Iodochalcones and Their 7-Substituted 6-Iodoflavonol Derivatives for Inhibitory Effect on Cholinesterases and β-Secretase” (International Journal of Molecular Sciences, 2018)

What was measured:
Type in all cases: biochemical
[1] = molecular target: acetylcholinesterase (AChE) (Homo sapiens, UniProt P22303); test: biochemical
[2] = molecular target: butyrylcholinesterase (BChE) (Homo sapiens, UniProt P06276); test: biochemical
Chain of butyrylcholinesterase (BChE) (P06276 29-602): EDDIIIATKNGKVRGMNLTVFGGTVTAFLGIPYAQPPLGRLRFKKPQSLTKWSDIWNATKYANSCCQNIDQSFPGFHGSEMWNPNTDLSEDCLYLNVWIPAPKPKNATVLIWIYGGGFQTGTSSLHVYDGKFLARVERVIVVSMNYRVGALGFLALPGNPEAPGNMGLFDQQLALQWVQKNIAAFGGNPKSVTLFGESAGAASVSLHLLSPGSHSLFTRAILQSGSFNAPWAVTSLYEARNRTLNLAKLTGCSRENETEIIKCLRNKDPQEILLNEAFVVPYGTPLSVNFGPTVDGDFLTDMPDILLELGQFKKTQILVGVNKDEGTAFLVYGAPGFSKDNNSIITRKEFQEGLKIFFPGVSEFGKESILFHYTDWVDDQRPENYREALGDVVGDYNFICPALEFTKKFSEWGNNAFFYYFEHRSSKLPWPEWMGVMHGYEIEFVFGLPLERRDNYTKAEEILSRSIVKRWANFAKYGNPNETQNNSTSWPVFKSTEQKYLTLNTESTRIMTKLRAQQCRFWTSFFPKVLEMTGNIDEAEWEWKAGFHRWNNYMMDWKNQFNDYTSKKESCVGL

[3] = molecular target: T1, BACE-1 (Homo sapiens, UniProt P56817); test: In vitro BACE-1 inhibitory FRET assay; details: 60 min at 25 °C, pH 4.5
T1 construct: purchased Pan Vera; host or cells: baculovirus-expressed
T1 sequence (P56817 46-501): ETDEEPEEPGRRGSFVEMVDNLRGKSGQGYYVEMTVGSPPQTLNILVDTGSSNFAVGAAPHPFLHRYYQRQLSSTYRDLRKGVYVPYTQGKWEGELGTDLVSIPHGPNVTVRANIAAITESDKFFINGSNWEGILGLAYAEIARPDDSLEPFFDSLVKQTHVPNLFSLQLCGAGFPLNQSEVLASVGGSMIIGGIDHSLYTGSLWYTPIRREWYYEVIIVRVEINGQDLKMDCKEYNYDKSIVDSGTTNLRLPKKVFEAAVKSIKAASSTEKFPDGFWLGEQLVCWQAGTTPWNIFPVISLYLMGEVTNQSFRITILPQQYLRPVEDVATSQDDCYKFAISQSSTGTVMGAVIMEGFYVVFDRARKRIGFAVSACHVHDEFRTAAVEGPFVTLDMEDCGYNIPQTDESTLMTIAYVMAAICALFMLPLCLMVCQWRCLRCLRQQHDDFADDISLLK

[4] = molecular target: T1, BACE-1; test: Kinetic study against BACE-1 (Lineweaver-Burk and Dixon plots); details: Dixon plot intercept
Description: The kinetics assays were conducted according to the manufacturer’s instructions similarly to the inhibitory assay except that change in fluorescence over time was monitored at 590 nm without the addition of the stop solution. Each substrate (0.15, 0.30, 0.45 µM) and compound (0, 4, 8 and 16 µM) concentration pair were prepared in triplicate and analyzed. The Lineweaver Burk and Dixon plots were plotted as described in Section 3.7.1.

[5] = mean ± SD, three independent experiments

Chain of acetylcholinesterase (AChE) (P22303 32-614): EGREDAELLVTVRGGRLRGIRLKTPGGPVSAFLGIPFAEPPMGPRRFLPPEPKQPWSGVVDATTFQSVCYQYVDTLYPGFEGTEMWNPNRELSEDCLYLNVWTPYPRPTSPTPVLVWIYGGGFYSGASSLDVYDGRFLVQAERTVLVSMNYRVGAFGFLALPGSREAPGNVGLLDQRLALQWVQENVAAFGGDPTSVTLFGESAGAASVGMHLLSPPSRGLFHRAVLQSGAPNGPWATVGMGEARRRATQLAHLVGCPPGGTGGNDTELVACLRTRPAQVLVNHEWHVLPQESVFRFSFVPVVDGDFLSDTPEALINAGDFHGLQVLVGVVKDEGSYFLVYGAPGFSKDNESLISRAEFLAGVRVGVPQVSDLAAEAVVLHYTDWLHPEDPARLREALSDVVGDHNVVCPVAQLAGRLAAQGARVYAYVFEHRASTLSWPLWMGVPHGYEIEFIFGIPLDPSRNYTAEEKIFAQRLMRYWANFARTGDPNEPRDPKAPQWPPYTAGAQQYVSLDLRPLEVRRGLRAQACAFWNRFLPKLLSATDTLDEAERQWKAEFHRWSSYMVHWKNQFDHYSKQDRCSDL

SMILES | SI BChE/AChE [1] | IC50 [1, 5] [µM] | SI AChE/BChE [2] | IC50 [2, 5] [µM] | IC50 [3] [µM] | Ki [4] [µM]
O=C(/C=C/c1ccc(F)cc1)c1cc(I)c(Br)cc1O [Compound 2j, (E)-1-(4-Bromo-2-hydroxy-5-iodophenyl)-3-(4-fluorophenyl)propenone] | 0.52 | 10.98 ± 0.03 | 1.92 | 5.73 ± 0.05 | 4.7 | 3.04 ± 2.31
COc1ccc(-c2oc3cc(Br)c(I)cc3c(=O)c2O)cc1 [Compound 3l, 7-Bro.mo-3-hydroxy-6-iodo-2-(4-methoxyphenyl)-4H-chromen-4-one] | – | – | – | – | 15.74 ± 0.12 | 1.21 ± 0.66
